TGI and GI50 data for 22 molecules are collected here from PubChem BioAssay (NCI).

“And” between values parts separate entries of the source, which are not always exact repeats. Equal values may be shown once.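 Compound exposure: 48 hours, 5 concentrations, 96-well plates. The concentration for 50% growth inhibition is given as GI50. Definition used: TGI = concentration required for complete inhibition of growth.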 Bounds are passed on as bounds.

What all share (assay): growth of human tumour cells (NCI), 48 h
In assay [1] the test system is DU-145 prostate.
Assay [2] relates to T-47D breast.
The subject of assay [3] is NCI/ADR-RES ovarian.
Assay [4] has as its system MDA-MB-231 breast.
Assay [5] relates to PC-3 prostate.
For assay [6], the system named is MDA-MB-435.
The subject of assay [7] is HS 578T breast.

For `CCOC(=O)c1cc2cc([N+](=O)[O-])ccc2oc1=O`, the TGI in assay [1], in assay [2], in assay [3], in assay [4], in assay [5] and in assay [6] was over 100 µM throughout. The molecule further had a TGI in assay [7] of over 100 µM.
In the case of `COc1cc(SC)ccc1C(=O)N1CCCC(C)C1` (stereo not given), the GI50 was over 100 µM in assay [1]; over 100 µM in assay [2]; 70.6 µM in assay [3]; over 100 µM in assay [4]; over 100 µM in assay [5]; over 100 µM in assay [6]. The GI50 in assay [7] was over 100 µM. Further, the TGI in assay [1], in assay [2], in assay [3], in assay [4], in assay [5] and in assay [6] was over 100 µM in each case. The same molecule gave a TGI in assay [7] of over 100 µM.
On to `Cc1ccc(Nc2ccnc(Nc3cccc(C(N)=O)c3)n2)cc1O`, for which the GI50 is 7.14 µM in assay [1]; 4.74 µM in assay [2]; over 18.7 µM in assay [3]; 4.27 µM in assay [4]; 5.42 µM in assay [5]; 7.98 µM in assay [6]. The GI50 in assay [7] was 0.742 µM. Further, the TGI in assay [1] is over 25 µM; in assay [2], over 21.2 µM; in assay [3], over 25 µM; in assay [4], over 25 µM; in assay [5] it was over 25 µM; in assay [6], over 25 µM. Further, the TGI in assay [7] was determined as 8.98 µM.
Consider `CCNC1=CC(=O)c2ncccc2C1=O`, for which the GI50 is 1.18 µM in assay [1]; 4.45 µM in assay [2]; 3.75 µM in assay [3]; 2.66 µM in assay [4]; 2.71 µM in assay [5]; 0.4 µM in assay [6]. Also, the GI50 in assay [7] was 1.69 µM. For the same molecule, the TGI was 2.44 µM in assay [1]; 23.1 µM in assay [2]; 28.2 µM in assay [3]; 21.1 µM in assay [4]; 22.8 µM in assay [5]; 1.5 µM in assay [6]. In addition, in assay [7], the TGI is 6.27 µM.
As to `Cc1[nH]nc(C(=O)N/N=C/c2cccs2)c1N=NN(C)C`, the TGI is over 100 µM in assay [1]; 41.3 µM in assay [2]; over 100 µM in assay [3]; 66.6 µM in assay [4]; over 100 µM in assay [5]; 57 µM in assay [6]. In assay [7], this molecule gave a TGI of over 100 µM.
As for `COc1ccc2c3c([nH]c2c1)[C@H]1C[C@H]2[C@H](C[C@@H](O)[C@H](OC)[C@H]2C(=O)O)CN1CC3`, the TGI in assay [1], in assay [2], in assay [3], in assay [4], in assay [5] and in assay [6] was over 100 µM in each case. This molecule returned a TGI in assay [7] of over 100 µM.
As to `CN1C=CN(Cc2ccc(-c3ccccn3)nc2)[CH-]1.CN1C=CN(Cc2ccc(-c3ccccn3)nc2)[CH-]1.[Au+3]`, the GI50 is 4.16 µM in assay [1]; 1.17 µM in assay [2]; over 70.8 µM in assay [3]; 2.64 µM in assay [4]; 0.922 µM in assay [5]; 2.97 µM in assay [6]. The GI50 in assay [7] is over 40.6 µM. The TGI is 36.8 µM in assay [1]; 3.07 µM in assay [2]; over 100 µM in assay [3]; 15 µM in assay [4]; over 100 µM in assay [5]; 20.9 µM in assay [6]. In addition, in assay [7], the TGI is over 100 µM.
As to `Cn1cc(/C=C2\C(=O)Nc3cccnc32)c2ccccc21`, the GI50 is 18 µM in assay [1]; over 17.1 µM in assay [2]; 20.4 µM in assay [3]; 11.1 µM in assay [4]; 22.9 µM in assay [5]; 18 µM in assay [6]. The GI50 in assay [7] is 8.58 µM. Also, the TGI in assay [1], in assay [2], in assay [3], in assay [4], in assay [5] and in assay [6] was over 25 µM throughout. Besides, the TGI in assay [7] is over 25 µM.
On to `O=c1c2c(=NCCCN3CCCC3)cc3c(=O)n(CCCN4CCCC4)c(=O)c4c(NCCCN5CCCC5)cc(c(O)n1CCCN1CCCC1)c2c4-3`, for which the GI50 in assay [1] is 2.96 µM; in assay [2] it was 2.89 µM; in assay [3] it was 20.2 µM; in assay [4], 4.89 µM; in assay [5], 3.66 µM; in assay [6], 3.04 µM. The GI50 in assay [7] was 2.67 µM. Further, the TGI in assay [1] was 7.79 µM; in assay [2], 18.1 µM; in assay [3], over 100 µM; in assay [4] it was 20.7 µM; in assay [5], 36.7 µM; in assay [6] it was 11.3 µM. This molecule displayed a TGI in assay [7] of 9.63 µM.
For the molecule `COc1ccccc1OCC(O)CO` (stereo not given), the GI50 in assay [1], in assay [2], in assay [3], in assay [4], in assay [5] and in assay [6] was over 100 µM throughout. Besides, the GI50 in assay [7] was over 100 µM. The TGI in assay [1], in assay [2], in assay [3], in assay [4], in assay [5] and in assay [6] was over 100 µM each time. Also, the TGI in assay [7] was over 100 µM.
For the molecule `NC(=O)c1ccc(-c2c3ccccc3cc3c2ccc2ccccc23)cc1`, the GI50 was 4.4 µM in assay [1]; 3.19 µM in assay [2]; 1.65 µM in assay [3]; 3.91 µM in assay [4]; 4.88 µM in assay [5]; 0.382 µM in assay [6]. Also, in assay [7], the GI50 is 2 µM. Further, the TGI in assay [1] was 26.2 µM; in assay [2], over 100 µM; in assay [3] it was 18.1 µM; in assay [4], 23.8 µM; in assay [5], 24.5 µM; in assay [6] it was 3.51 µM. In addition, the TGI in assay [7] worked out at 7.08 µM.
`CC(Cl)CC(=O)Nc1ccc2c(c1)oc(=O)c1cc(NC(=O)CC(C)Cl)ccc12` (stereo not given): the GI50 in assay [1] is 15.1 µM; in assay [2], 16.2 µM; in assay [3], 12.4 µM; in assay [4], 1.98 µM; in assay [5], 12.4 µM; in assay [6], 18.3 µM. In addition, the GI50 in assay [7] was 2.36 µM. The TGI in assay [1] was 34.1 µM; in assay [2], over 100 µM; in assay [3] it was 51 µM; in assay [4], 23.7 µM; in assay [5] it was 27.7 µM; in assay [6], over 100 µM. The TGI in assay [7] came out at 22.6 µM.
Regarding `C/C(=N\n1c(N)c(C#N)c(-c2ccc(Cl)cc2)c(C#N)c1=O)c1cccnc1`, the GI50 in assay [1], in assay [2], in assay [3], in assay [4], in assay [5] and in assay [6] was over 100 µM throughout. In addition, the GI50 in assay [7] was over 100 µM. Further, the TGI in assay [1], in assay [2], in assay [3], in assay [4], in assay [5] and in assay [6] was over 100 µM each time. Also, the TGI in assay [7] is over 100 µM.
For the molecule `CCn1cc(C2NC(=O)c3cc(F)ccc3N2)c2cccc(Cl)c21` (stereo not given), the GI50 is 0.379 µM in assay [1]; 0.635 µM in assay [2]; 0.081 µM in assay [3]; 0.503 µM in assay [4]; 0.296 µM in assay [5]; 0.0367 µM in assay [6]. For the same molecule, in assay [7], the GI50 is 0.197 µM. The TGI is over 100 µM in assay [1]; over 100 µM in assay [2]; 0.75 µM in assay [3]; over 100 µM in assay [4]; over 100 µM in assay [5]; 0.142 µM in assay [6]. This molecule showed a TGI in assay [7] of over 23.1 µM.
For the molecule `COCCn1cc(-c2csc(-c3c[nH]c4ccc(F)cc34)n2)c2cccnc21`, the GI50 in assay [1] was 18.8 µM; in assay [3], 2.17 µM; in assay [4], 2.59 µM; in assay [5], 5.07 µM; in assay [6] it was 0.89 µM; in assay [7], 8.82 µM. The TGI in assay [1] is over 100 µM; in assay [3], 29.2 µM; in assay [4], over 100 µM; in assay [5] it was over 100 µM; in assay [6] it was 14.3 µM; in assay [7], over 100 µM.
For `NC(=O)c1ccc(NC(=O)c2oc3ccccc3c2-c2cnn(-c3ccccc3)c2)cc1`, the GI50 in assay [4] was 4.65 µM; in assay [6], over 100 µM; in assay [7], 4.56 µM. Also, the TGI in assay [4], in assay [6] and in assay [7] was over 100 µM each time.
Take `C[C@H]1CC(=O)[C@@]2(O)C#C/C=C\C#C[C@@H]3Nc4c(cc(O)c5c4C(=O)c4ccccc4C5=O)[C@]24O[C@]314`: the GI50 in assay [1] was 0.0025 µM; in assay [6], 0.0196 µM; in assay [7], 0.292 µM. Besides, the TGI is 0.612 µM in assay [2]; 0.44 µM in assay [3]; over 25 µM in assay [4]; 0.219 µM and 0.262 µM in assay [6]; 8.35 µM and 1.35 µM in assay [7].
With `O=C(N/N=C\c1cc(Cl)ccc1O)N/N=C/c1cc(Cl)ccc1O`, the GI50 in assay [1] was over 100 µM; in assay [2], 2.32 µM; in assay [3], 2.48 µM; in assay [4] it was 4.3 µM; in assay [5], 2.96 µM; in assay [6], 1.36 µM. In addition, the GI50 in assay [7] is 0.643 µM. The TGI in assay [1], in assay [2], in assay [3], in assay [4], in assay [5] and in assay [6] was over 100 µM each time. The molecule also displayed a TGI in assay [7] of over 100 µM.
With `CN(C)c1ccc(/C=N/Nc2ccc(-c3nc4ccccc4[nH]3)cc2)cc1`, the GI50 in assay [1] is 37.8 µM; in assay [2], 8.95 µM; in assay [3], 10.7 µM; in assay [4] it was 13.4 µM; in assay [5], 7.27 µM; in assay [6], 8.25 µM. For the same molecule, the GI50 in assay [7] was 5.61 µM. Besides, the TGI is over 50 µM in assay [1]; 40.9 µM in assay [2]; 32 µM in assay [3]; 42.1 µM in assay [4]; over 50 µM in assay [5]; over 50 µM in assay [6]. The same molecule displayed a TGI in assay [7] of 23.6 µM.
Take `ClCc1ccc(Cn2cnc3ncnc(Cl)c32)cc1`: the GI50 was 1.29 µM in assay [2]; 1.81 µM in assay [3]; 1.76 µM in assay [4]; 1.58 µM in assay [5]; 5.82 µM in assay [6]; 1.74 µM in assay [7]. For the same molecule, the TGI turned out to be 2.86 µM in assay [2]; 4.68 µM in assay [3]; 3.35 µM in assay [4]; 2.93 µM in assay [5]; 19.2 µM in assay [6]; 4.3 µM in assay [7].
As to `C=C1C(=O)O[C@H]2[C@H](OC(C)=O)[C@@H](C)CCC/C(C)=C/CC[C@]3(CO3)[C@H](O)C[C@@H]12`, the GI50 in assay [1] is 2.56 µM; in assay [2], 2.8 µM; in assay [3] it was 5.92 µM; in assay [4], 5.25 µM; in assay [6] it was 3.01 µM; in assay [7], 14.4 µM. The TGI in assay [1] was found to be 10.2 µM; in assay [2], 9.88 µM; in assay [3] it was 35.2 µM; in assay [4], 17.2 µM; in assay [6], 7.99 µM; in assay [7] it was 35.3 µM.
`NC(=NC1C2CC3CC(C2)CC1C3)Nc1ccc(I)cc1` (stereo not given): the GI50 in assay [1] is 3.66 µM; in assay [3], 4.59 µM; in assay [4], 3.31 µM; in assay [5], 3.14 µM; in assay [6], 3.8 µM; in assay [7], 4.65 µM. Besides, the TGI in assay [1] is 12.6 µM; in assay [3], 17.1 µM; in assay [4], 11 µM; in assay [5] it was 12.2 µM; in assay [6] it was 13.6 µM; in assay [7] it was 25.2 µM.
